Experimental data published in the NIST ThermoML archive (doi:10.1016/j.jct.2016.07.008).

Settings: Liquid

CCCCO [butan-1-ol]
viscosity [mPa·s]
Settings	293.15 K	298.15 K	313.15 K	323.15 K	333.15 K	348.15 K	353.15 K
100 kPa, Concentric cylinders viscometry	2.959	–	1.794	–	1.154	–	0.7837
100 kPa, Vibrating wire viscometry	2.969	2.601	1.797	1.429	1.156	0.8579	0.7903
1000 kPa, Vibrating wire viscometry	3.001	2.622	1.813	1.44	1.172	0.8647	0.7943
5000 kPa, Vibrating wire viscometry	3.108	2.715	1.89	1.491	1.227	0.8956	0.8284
10000 kPa, Vibrating wire viscometry	3.244	2.834	1.967	1.556	1.29	0.9349	0.8637
20000 kPa, Vibrating wire viscometry	3.479	3.079	2.14	1.69	1.389	1.016	0.9473
30000 kPa, Vibrating wire viscometry	3.788	3.333	2.319	1.829	1.504	1.101	1.04
40000 kPa, Vibrating wire viscometry	4.078	3.599	2.48	1.975	1.624	1.189	1.102
50000 kPa, Vibrating wire viscometry	4.401	3.874	2.629	2.125	1.741	1.28	1.21
60000 kPa, Vibrating wire viscometry	4.74	4.16	2.852	2.281	1.867	1.375	1.295
70000 kPa, Vibrating wire viscometry	5.076	4.455	3.089	2.443	2.014	1.473	1.384
80000 kPa, Vibrating wire viscometry	5.438	4.761	3.247	2.61	2.137	1.575	1.473
100000 kPa, Vibrating wire viscometry	6.164	5.404	3.686	2.962	2.384	1.788	1.676
120000 kPa, Vibrating wire viscometry	6.979	6.087	4.192	3.335	2.633	2.015	1.857
140000 kPa, Vibrating wire viscometry	7.843	6.811	4.638	3.682	2.883	2.255	2.037
